US12697326B2, “Methods of treating hepatic encephalopathy” (SALIX PHARMACEUTICALS, INC., priority 2008, dated 2026)

Tested on: breakthrough HE episode in subjects with hepatic encephalopathy (HE)
Experiment: Time to first breakthrough (overt) HE episode, first study, rifaximin vs placebo
Format: in vivo, human
Excerpt: An increase in the Conn score of greater than or equal to grade 2 was considered as a breakthrough HE episode.
An efficacy endpoint was the time to first breakthrough overt HE episode. A breakthrough overt HE episode was defined as an increase of Conn score to Grade ≥2 (e.g., 0) or 1 to ≥2) or an increase in Conn and asterixis score of 1 grade each for those subjects who entered the study with a Conn score of 0. Time to breakthrough overt HE episode was the duration from time of first dose of study drug to the first breakthrough overt HE episode. […] Subjects who terminated early for reasons other than breakthrough overt HE were contacted at 6 months from randomization to determine if subjects had experienced a breakthrough overt HE episode or other outcome (e.g., mortality status); and, if the subject had no breakthrough overt HE event prior to contact, he/she was censored at the time of contact. […] Subjects in the study had ≥2 episodes of overt HE equivalent to Conn score ≥2 within 6 months prior to screening (i.e., subjects had documented recurrent, overt HE). At the baseline assessment, subjects were in remission with a Conn score of 0 or 1. A breakthrough overt HE episode, as defined above, was a marked deterioration in neurological function.
Presented herein are the results of the first study and second study. […] The primary efficacy endpoint was the time to breakthrough overt HE. Breakthrough overt HE was defined as an increase of Conn score to Grade ≥2 (e.g., 0 or 1 to ≥2) or an increase in Conn and asterixis score of 1 grade each for those subjects who entered the study with a Conn score of 0. Subjects discontinued from the study at the time of breakthrough overt HE episode. After participation in the first study, subjects had the option to enroll in the open-label, treatment-extension study (the second study).
FIG. 1 illustrates Kaplan-Meier estimates of time to first breakthrough overt HE episode by treatment group in the ITT population. Table 18 presents Kaplan-Meier estimates of the proportions of subjects who experienced breakthrough overt HE over the course of the Treatment Period and results of statistical analyses. […] Subjects who terminated early for reasons other than breakthrough overt HE (eg, liver transplant, AE, subject request) were contacted at 6 months from date of randomization to determine if subjects had experienced a breakthrough overt HE episode or other outcome (e.g., mortality status). Subjects without breakthrough overt HE were censored at the time of contact or death, whichever was earlier.

[1] = breakthrough HE episode by baseline Conn score level, 550 mg BID, N = 93, Days >= 168
[2] = breakthrough HE episode by baseline Conn score level; 550 mg BID; N = 93; Days [0-28)
[3] = breakthrough HE episode by baseline Conn score level; 550 mg BID; N = 93; Days [28-56)
[4] = breakthrough HE episode by baseline Conn score level; 550 mg BID; N = 93; Days [56-84)
[5] = breakthrough HE episode by baseline Conn score level; 550 mg BID; N = 93; Days [84-140)
[6] = breakthrough HE episode by baseline Conn score level; 550 mg BID; N = 93; Days [140-168)
[7] = breakthrough HE episode by baseline MELD score level, 550 mg BID, N = 11, Days >=168
[8] = breakthrough HE episode by baseline MELD score level; 550 mg BID; N = 11; Days [0-28)
[9] = breakthrough HE episode by baseline MELD score level; 550 mg BID; N = 11; Days [28-56)
[10] = breakthrough HE episode by baseline MELD score level; 550 mg BID; N = 11; Days [56-84)
[11] = breakthrough HE episode by baseline MELD score level; 550 mg BID; N = 11; Days [84-140)
[12] = breakthrough HE episode by baseline MELD score level; 550 mg BID; N = 11; Days [140-168)
[13] = breakthrough HE episode by baseline MELD score level, 550 mg BID, N = 34, Days >=168
[14] = breakthrough HE episode by baseline MELD score level; 550 mg BID; N = 34; Days [0-28)
[15] = breakthrough HE episode by baseline MELD score level; 550 mg BID; N = 34; Days [28-56)
[16] = breakthrough HE episode by baseline MELD score level; 550 mg BID; N = 34; Days [56-84)
[17] = breakthrough HE episode by baseline MELD score level; 550 mg BID; N = 34; Days [84-140)
[18] = breakthrough HE episode by baseline MELD score level; 550 mg BID; N = 34; Days [140-168)
[19] = breakthrough HE episode by baseline MELD score level, 550 mg BID, N = 85, Days >=168
[20] = breakthrough HE episode by baseline MELD score level; 550 mg BID; N = 85; Days [0-28)
[21] = breakthrough HE episode by baseline MELD score level; 550 mg BID; N = 85; Days [28-56)
[22] = breakthrough HE episode by baseline MELD score level; 550 mg BID; N = 85; Days [56-84)
[23] = breakthrough HE episode by baseline MELD score level; 550 mg BID; N = 85; Days [84-140)
[24] = breakthrough HE episode by baseline MELD score level; 550 mg BID; N = 85; Days [140-168)
[25] = breakthrough HE episode by prior lactulose use, 550 mg BID, N = 123, Days >=168

**Q.** What does the source list for `CO[C@H]1/C=C/O[C@@]2(C)Oc3c(C)c(O)c4c(O)c(c5c(nc6cc(C)ccn65)c4c3C2=O)NC(=O)/C(C)=C\C=C\[C@H](C)[C@H](O)[C@@H](C)[C@@H](O)[C@@H](C)[C@H](OC(C)=O)[C@@H]1C` [Rifaximin]?
**A.** Cumulative Occurrences of Events [1]: 19; Occurrences of Events [1]: 0; Survival [1]: 0.7924; Occurrences of Events [2]: 11; Survival [2]: 1.0000; Occurrences of Events [3]: 3; Survival [3]: 0.8817; Occurrences of Events [4]: 1; Survival [4]: 0.8491; Occurrences of Events [5]: 3; Survival [5]: 0.8380; Occurrences of Events [6]: 1; Survival [6]: 0.8042; Cumulative Occurrences of Events [7]: 4; Occurrences of Events [7]: 0; Survival [7]: 0.6364; Cumulative Occurrences of Events [8]: 1; Occurrences of Events [8]: 1; Survival [8]: 1.0000; Cumulative Occurrences of Events [9]: 1; Occurrences of Events [9]: 0; Survival [9]: 0.9091; Cumulative Occurrences of Events [10]: 4; Occurrences of Events [10]: 3; Survival [10]: 0.9091; Cumulative Occurrences of Events [11]: 4; Occurrences of Events [11]: 0; Survival [11]: 0.6364; Cumulative Occurrences of Events [12]: 4; Occurrences of Events [12]: 0; Survival [12]: 0.6364; Cumulative Occurrences of Events [13]: 2; Occurrences of Events [13]: 0; Survival [13]: 0.9398; Cumulative Occurrences of Events [14]: 1; Occurrences of Events [14]: 1; Survival [14]: 1.0000; Cumulative Occurrences of Events [15]: 1; Occurrences of Events [15]: 0; Survival [15]: 0.9706; Cumulative Occurrences of Events [16]: 1; Occurrences of Events [16]: 0; Survival [16]: 0.9706; Cumulative Occurrences of Events [17]: 2; Occurrences of Events [17]: 1; Survival [17]: 0.9706; Cumulative Occurrences of Events [18]: 2; Occurrences of Events [18]: 0; Survival [18]: 0.9398; Cumulative Occurrences of Events [19]: 20; Occurrences of Events [19]: 0; Survival [19]: 0.7580; Cumulative Occurrences of Events [20]: 8; Occurrences of Events [20]: 8; Survival [20]: 1.0000; Cumulative Occurrences of Events [21]: 10; Occurrences of Events [21]: 2; Survival [21]: 0.9059; Cumulative Occurrences of Events [22]: 13; Occurrences of Events [22]: 3; Survival [22]: 0.8822; Cumulative Occurrences of Events [23]: 19; Occurrences of Events [23]: 6; Survival [23]: 0.8459; Cumulative Occurrences of Events [24]: 20; Occurrences of Events [24]: 1; Survival [24]: 0.7713; Cumulative Occurrences of Events [25]: 29; Occurrences of Events [25]: 0; Survival [25]: 0.7586; Cumulative Occurrences of Events (breakthrough HE episode by prior lactulose use; 550 mg BID; N = 123; Days [0-28)): 12
